Where a SMILES comes first, the peptide text is derived from it.
Key:
Conditions in all cases: 10°C
[1] = molecular target: T1, N-SH2 domain of PI3K, V101A variant (Homo sapiens, UniProt P27986, V422A); assay: Stopped-flow binding kinetics, N-SH2 V101A
T1 construct: made in house
Description: (§1) N-SH2 wild-type and all the site-directed variants were expressed and purified as described previously ([Visconti et al., 2019]). All the mutants were obtained using a QuickChange Lightning Site-Directed Mutagenesis kit (Agilent technologies), accordingly to manufacturer instructions. Peptides with sequence TNSEDNpYVPMNPG mimicking wild-type Gab2 and TNSEDNpYVPANPG mimicking the M457A variant of Gab2 were purchased from GenScript Biotech Corporation.
(§2) Binding kinetics experiments were performed using a single-mixing SX-18 stopped-flow instrument (Applied Photophysics); all binding experiments were conducted in 50 mM Hepes pH 7.4 300 mM NaCl at 10°C. Excitation was at 280 nm and emission was collected using a […] cut-off glass filter. Pseudo-first order binding experiments were performed mixing a constant concentration of dansylated Gab2_448–460 and Gab2_448–460 M457A (1 μM) vs. N-SH2 wt and its mutants at concentrations ranging from […]. For each N-SH2 concentration, usually 5 individual traces were averaged and in all cases the fluorescence time courses obtained was satisfactorily fitted by using a single exponential equation.
(§3) One of the aims of this study is to depict the molecular details of the interaction between the N-SH2 domain of PI3K and Gab2. A powerful strategy to achieve this goal relies on perturbing the system by producing conservative site-directed variants while monitoring the effect of mutations on the association and dissociation rate constants between the interacting partners (kon and koff respectively). Thus, we designed and successfully produced 21 site-directed variants of the N-SH2 domain and challenged them vs. a peptide mimicking the region of Gab2 ranging from residue 448–460 (Gab2_448–460), containing the pY-X-X-M motif that is specifically recognized by the N-SH2 domain ([Waksman et al., 1992]; [Songyang et al., 1993]). The choise of mutations was designed in analogy to phi-value analysis methodology in protein folding studies ([Fersht and Sato, 2004]). […] To monitor binding by fluorescence, a dansyl group was added at the N-terminus of the peptide. The binding reaction was monitored by stopped-flow experiments following the change in FRET signal, taking advantage of the two Trp residues on the N-SH2 domain in positions 12 and 14 as fluorescence donor and the dansyl group on Gab2_448–460 as acceptor. The experiments were performed in pseudo-first order conditions with Gab2_448–460 at fixed concentration of 1 μM rapidly mixed vs. large excess of N-SH2 wt and its variants, ranging from 4 to 14 μM, in buffer Hepes 50 mM, NaCl 300 mM, pH 7.4, at 10°C.
(§4) with kon being the slope of the line and koff the intercept with the y-axis. Since indirect calculation of koff obtained by extrapolation is associated with high experimental error, we performed displacement experiments to directly measure koff by challenging a pre-incubated complex of dansylated Gab2_448–460 and N-SH2 domain both at the concentration of 1 μM vs. a large excess of non-dansylated Gab2_448–460 (50 μM). Kinetic parameters extracted from data together with the calculated changes in activation and equilibrium free energies are reported in Table 1. Analysis of kinetic data highlights that T48S, L51A, and L59A variations cause a detectable decrease of the affinity of the domain for Gab2_448–460 of ∼10-fold, affecting both the kon and koff. […] Since L99 residue is part of the binding pocket, this dramatic effect on the binding affinity is expected.
(§5) SH2 domains bind ligands with a phosphorylated tyrosine in their sequence. The N-SH2 domain of PI3K is known to recognize a specific consensus sequences that present a methionine in position +3 in respect to the phosphotyrosine (M457 in Gab2). […]

[2] = molecular target: T2, N-SH2 domain of PI3K, A30G variant (Homo sapiens, UniProt P27986, A351G); assay: Stopped-flow binding kinetics, N-SH2 A30G
T2 construct: made in house
Description: as §1, §2, §3, §4, §5

[3] = molecular target: T3, N-SH2 domain of PI3K, V80A variant (Homo sapiens, UniProt P27986, V401A); assay: Stopped-flow binding kinetics, N-SH2 V80A
T3 construct: made in house
Description: as §1, §2, §3, §4, §5

[4] = molecular target: T4, N-SH2 domain of PI3K, I62V variant (Homo sapiens, UniProt P27986, I383V); assay: Stopped-flow binding kinetics, N-SH2 I62V
T4 construct: made in house
Description: as §1, §2, §3, §4, §5

[5] = molecular target: T5, N-SH2 domain of PI3K, L75A variant (Homo sapiens, UniProt P27986, L396A); assay: Stopped-flow binding kinetics, N-SH2 L75A
T5 construct: made in house
Description: as §1, §2, §3, §4, §5

[6] = molecular target: T6, N-SH2 domain of PI3K, T33S variant (Homo sapiens, UniProt P27986, T354S); assay: Stopped-flow binding kinetics, N-SH2 T33S
T6 construct: made in house
Description: as §1, §2, §3, §4, §5

[7] = molecular target: T7, N-SH2 domain of PI3K, L104A variant (Homo sapiens, UniProt P27986, L425A); assay: Stopped-flow binding kinetics, N-SH2 L104A
T7 construct: made in house
Description: as §1, §2, §3, §4, §5

[8] = molecular target: T8, N-SH2 domain of PI3K, T29S variant (Homo sapiens, UniProt P27986, T350S); assay: Stopped-flow binding kinetics, N-SH2 T29S
T8 construct: made in house
Description: as §1, §2, §3, §4, §5

[9] = molecular target: T9, N-SH2 domain of PI3K, T76S variant (Homo sapiens, UniProt P27986, T397S); assay: Stopped-flow binding kinetics, N-SH2 T76S
T9 construct: made in house
Description: as §1, §2, §3, §4, §5

[10] = molecular target: T10, N-SH2 domain of PI3K, T50S variant (Homo sapiens, UniProt P27986, T371S); assay: Stopped-flow binding kinetics, N-SH2 T50S
T10 construct: made in house
Description: as §1, §2, §3, §4, §5

[11] = molecular target: T11, N-SH2 domain of PI3K, I17V variant (Homo sapiens, UniProt P27986, I338V); assay: Stopped-flow binding kinetics, N-SH2 I17V
T11 construct: made in house
Description: as §1, §2, §3, §4, §5

[12] = molecular target: T12, N-SH2 domain of PI3K, L51A variant (Homo sapiens, UniProt P27986, L372A); assay: Stopped-flow binding kinetics, N-SH2 L51A
T12 construct: made in house
Description: as §1, §2, §3, §4, §5

[13] = molecular target: T13, N-SH2 domain of PI3K, V81A variant (Homo sapiens, UniProt P27986, V402A); assay: Stopped-flow binding kinetics, N-SH2 V81A
T13 construct: made in house
Description: as §1, §2, §3, §4, §5

N-SH2 domain of PI3K, WT = molecular target: T14, N-SH2 domain of PI3K, WT (Homo sapiens, UniProt P27986); assay: Stopped-flow binding kinetics, N-SH2 WT
T14 construct: made in house
Description: as §1, §2, §3, §4, §5

[14] = molecular target: T15, N-SH2 domain of PI3K, I60V variant (Homo sapiens, UniProt P27986, I381V); assay: Stopped-flow binding kinetics, N-SH2 I60V
T15 construct: made in house
Description: as §1, §2, §3, §4, §5

[15] = molecular target: T16, N-SH2 domain of PI3K, V22A variant (Homo sapiens, UniProt P27986, V343A); assay: Stopped-flow binding kinetics, N-SH2 V22A
T16 construct: made in house
Description: as §1, §2, §3, §4, §5

[16] = molecular target: T17, N-SH2 domain of PI3K, P74A variant (Homo sapiens, UniProt P27986, P395A); assay: Stopped-flow binding kinetics, N-SH2 P74A
T17 construct: made in house
Description: as §1, §2, §3, §4, §5

[17] = displacement experiment, pH 7.4, 300 mM NaCl
[18] = stopped-flow FRET, 1 μM dansylated peptide, 50 mM Hepes pH 7.4, 300 mM NaCl
[19] = stopped-flow kinetics, pH 7.4, 300 mM NaCl

T9 sequence (P27986 333-428 T397S): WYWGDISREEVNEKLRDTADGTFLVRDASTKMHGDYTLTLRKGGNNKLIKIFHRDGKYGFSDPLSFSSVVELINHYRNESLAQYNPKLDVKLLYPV
T15 sequence (P27986 333-428 I381V): as the sequence (P27986 333-428 T397S) above, with I49V, S65T counted along it
T16 sequence (P27986 333-428 V343A): as the sequence (P27986 333-428 T397S) above, with V11A, S65T counted along it
T12 sequence (P27986 333-428 L372A): as the sequence (P27986 333-428 T397S) above, with L40A, S65T counted along it
T1 sequence (P27986 333-428 V422A): as the sequence (P27986 333-428 T397S) above, with S65T, V90A counted along it
T2 sequence (P27986 333-428 A351G): as the sequence (P27986 333-428 T397S) above, with A19G, S65T counted along it
T13 sequence (P27986 333-428 V402A): as the sequence (P27986 333-428 T397S) above, with S65T, V70A counted along it
T14 sequence (P27986 333-428 limits assumed): as the sequence (P27986 333-428 T397S) above, with S65T counted along it
T7 sequence (P27986 333-428 L425A): as the sequence (P27986 333-428 T397S) above, with S65T, L93A counted along it
T17 sequence (P27986 333-428 P395A): as the sequence (P27986 333-428 T397S) above, with P63A, S65T counted along it
T5 sequence (P27986 333-428 L396A): as the sequence (P27986 333-428 T397S) above, with L64A, S65T counted along it
T11 sequence (P27986 333-428 I338V): as the sequence (P27986 333-428 T397S) above, with I6V, S65T counted along it
T4 sequence (P27986 333-428 I383V): as the sequence (P27986 333-428 T397S) above, with I51V, S65T counted along it
T10 sequence (P27986 333-428 T371S): as the sequence (P27986 333-428 T397S) above, with T39S, S65T counted along it
T8 sequence (P27986 333-428 T350S): as the sequence (P27986 333-428 T397S) above, with T18S, S65T counted along it
T3 sequence (P27986 333-428 V401A): as the sequence (P27986 333-428 T397S) above, with S65T, V69A counted along it
T6 sequence (P27986 333-428 T354S): as the sequence (P27986 333-428 T397S) above, with T22S, S65T counted along it

Compound: CC(C)[C@H](NC(=O)[C@H](Cc1ccc(OP(=O)(O)O)cc1)NC(=O)[C@H](CC(N)=O)NC(=O)[C@H](CC(=O)O)NC(=O)[C@H](CCC(=O)O)NC(=O)[C@H](CO)NC(=O)[C@H](CC(N)=O)NC(=O)[C@@H](N)[C@@H](C)O)C(=O)N1CCC[C@H]1C(=O)N[C@@H](C)C(=O)N[C@@H](CC(N)=O)C(=O)N1CCC[C@H]1C(=O)NCC(=O)O [Gab2_448–460 M457A] (HELM PEPTIDE1{T.N.S.E.D.N.[O=C([C@H](Cc1ccc(OP(=O)(O)O)cc1)N[*:1])[*:2]].V.P.A.N.P.G}$$$$V2.0)
- koff [1, 17]: 170 ± 9 s⁻¹
- kon [1, 18]: 1.42e+07 ± 1.7e+06 M⁻¹ s⁻¹
- Kd [1, 19]: 12 ± 1 µM
- koff [2, 17]: 90 ± 4 s⁻¹
- kon [2, 18]: 1.71e+07 ± 2.2e+06 M⁻¹ s⁻¹
- Kd [2, 19]: 5.1 ± 0.7 µM
- koff [3, 17]: 130 ± 6 s⁻¹
- kon [3, 18]: 2.23e+07 ± 5.4e+06 M⁻¹ s⁻¹
- Kd [3, 19]: 5.6 ± 1.4 µM
- koff [4, 17]: 120 ± 6 s⁻¹
- kon [4, 18]: 1.84e+07 ± 1.5e+06 M⁻¹ s⁻¹
- Kd [4, 19]: 6.7 ± 0.6 µM
- koff [5, 17]: 110 ± 5 s⁻¹
- kon [5, 18]: 1.88e+07 ± 3.2e+06 M⁻¹ s⁻¹
- Kd [5, 19]: 5.7 ± 1 µM
- koff [6, 17]: 80 ± 4 s⁻¹
- kon [6, 18]: 2.06e+07 ± 2.9e+06 M⁻¹ s⁻¹
- Kd [6, 19]: 3.8 ± 0.6 µM
- koff [7, 17]: 110 ± 6 s⁻¹
- kon [7, 18]: 2.21e+07 ± 1.4e+06 M⁻¹ s⁻¹
- Kd [7, 19]: 5.2 ± 0.4 µM
- koff [8, 17]: 80 ± 4 s⁻¹
- kon [8, 18]: 1.97e+07 ± 2.7e+06 M⁻¹ s⁻¹
- Kd [8, 19]: 4 ± 0.6 µM
- koff [9, 17]: 100 ± 5 s⁻¹
- kon [9, 18]: 1.96e+07 ± 2.6e+06 M⁻¹ s⁻¹
- Kd [9, 19]: 5 ± 0.7 µM
- koff [10, 17]: 140 ± 7 s⁻¹
- kon [10, 18]: 2.02e+07 ± 2e+06 M⁻¹ s⁻¹
- Kd [10, 19]: 6.8 ± 0.8 µM
- koff [11, 17]: 90 ± 5 s⁻¹
- kon [11, 18]: 2.2e+07 ± 2.3e+06 M⁻¹ s⁻¹
- Kd [11, 19]: 4.3 ± 0.5 µM
- koff [12, 17]: 160 ± 8 s⁻¹
- kon [12, 18]: 2.12e+07 ± 3.3e+06 M⁻¹ s⁻¹
- Kd [12, 19]: 7.6 ± 1.2 µM
- koff [13, 17]: 90 ± 5 s⁻¹
- kon [13, 18]: 2.05e+07 ± 3.8e+06 M⁻¹ s⁻¹
- Kd [13, 19]: 4.5 ± 0.9 µM
- koff (N-SH2 domain of PI3K, WT; displacement of 1 μM complex by 50 μM non-dansylated Gab2_448–460, 50 mM Hepes pH 7.4, 300 mM NaCl): 80 ± 4 s⁻¹
- Kd (N-SH2 domain of PI3K, WT; from stopped-flow kinetics, pH 7.4, 300 mM NaCl): 3.7 ± 0.4 µM
- kon (N-SH2 domain of PI3K, WT; stopped-flow FRET, 1 μM dansylated peptide vs excess N-SH2, 50 mM Hepes pH 7.4, 300 mM NaCl, slope of kobs): 2.15e+07 ± 2.4e+06 M⁻¹ s⁻¹
- koff [14, 17]: 80 ± 4 s⁻¹
- kon [14, 18]: 1.52e+07 ± 1.5e+06 M⁻¹ s⁻¹
- Kd [14, 19]: 5 ± 0.6 µM
- koff [15, 17]: 170 ± 9 s⁻¹
- kon [15, 18]: 1.77e+07 ± 2.6e+06 M⁻¹ s⁻¹
- Kd [15, 19]: 9.7 ± 1.5 µM
- koff [16, 17]: 60 ± 3 s⁻¹
- kon [16, 18]: 2.25e+07 ± 1.9e+06 M⁻¹ s⁻¹
- Kd [16, 19]: 2600 ± 300 nM

From PMC7247818, “Demonstration of Binding Induced Structural Plasticity in a SH2 Domain” (Frontiers in Molecular Biosciences, 2020)
